# Measurements from ChEMBL document CHEMBL1201862, “PubChem BioAssay data set” (2004).
#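 Assay format: 96-well plates, 48-hour exposure. GI50: concentration for 50% inhibition of growth.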 Activity calls are given as the source filed them. Rule as the data show it: active = GI50 up to about 1.1 µM and inactive = higher.
# What was measured:
# Assay in all cases: NCI anticancer screen, dose series, 48 h
# LOX IMVI = tested on: LOX IMVI
# UACC-257 = tested on: UACC-257
# UO-31 = tested on: UO-31
# SNB-19 = tested on: SNB-19
# MDA-N = tested on: MDA-N
# M14 = tested on: M14
# K562 = tested on: K562
# PC-3 = tested on: PC-3
# OVCAR-8 = tested on: OVCAR-8
# SK-MEL-28 = tested on: SK-MEL-28
# MOLT-4 = tested on: MOLT-4
# HT-29 = tested on: HT-29
# OVCAR-4 = tested on: OVCAR-4
# TK-10 = tested on: TK-10
# UACC-62 = tested on: UACC-62
# ACHN = tested on: ACHN
# RPMI-8226 = tested on: RPMI-8226
# RXF 393 = tested on: RXF 393
# MDA-MB-435 = tested on: MDA-MB-435
# KM12 = tested on: KM12
Compound,GI50 (LOX IMVI),GI50 (UACC-257),GI50 (UO-31),GI50 (SNB-19),GI50 (MDA-N),GI50 (M14),GI50 (K562),GI50 (PC-3),GI50 (OVCAR-8),GI50 (SK-MEL-28),GI50 (MOLT-4),GI50 (HT-29),GI50 (OVCAR-4),GI50 (TK-10),GI50 (UACC-62),GI50 (ACHN),GI50 (RPMI-8226),GI50 (RXF 393),GI50 (MDA-MB-435),GI50 (KM12)
C=CCOC(=O)[C@@H]1C[C@@H](OC(C)(C)C)CN1C(=O)[C@@H]1[C@H]2OC(C)(C)O[C@H]2CN1C(=O)OCC1c2ccccc2-c2ccccc21,2.3 µM (inactive),17.5 µM (inactive),0.15 µM (active),16.9 µM (inactive),18.1 µM (inactive),19.7 µM (inactive),11 µM (inactive),15.7 µM (inactive),5.87 µM (inactive),18.1 µM (inactive),15.6 µM (inactive),17.2 µM (inactive),17.2 µM (inactive),18.4 µM (inactive),17.7 µM (inactive),15.9 µM (inactive),6.19 µM (inactive),10.2 µM (inactive),17.2 µM (inactive),2.86 µM (inactive)
CCOCc1nc2c(OC)c(-c3nc4ccc(N5CCN(C)CC5)cc4[nH]3)cc(OC)c2[nH]1,21.1 µM (inactive),19 µM (inactive),22.1 µM (inactive),44.4 µM (inactive),18.6 µM (inactive),20.2 µM (inactive),35.6 µM (inactive),63.4 µM (inactive),80.2 µM (inactive),18.6 µM (inactive),31.2 µM (inactive),27.8 µM (inactive),71.8 µM (inactive),53.3 µM (inactive),19.6 µM (inactive),57.4 µM (inactive),40.1 µM (inactive),16 µM (inactive),20.6 µM (inactive),31.6 µM (inactive)
CCOc1ccccc1/N=C\c1c2ccccc2cc2ccccc12,19.1 µM (inactive),31.1 µM (inactive),18.6 µM (inactive),26.4 µM (inactive),21.9 µM (inactive),20.3 µM (inactive),17.3 µM (inactive),23.3 µM (inactive),23.8 µM (inactive),26.2 µM (inactive),11.6 µM (inactive),21.6 µM (inactive),24.3 µM (inactive),25 µM (inactive),38.5 µM (inactive),29 µM (inactive),15.5 µM (inactive),15.7 µM (inactive),22.7 µM (inactive),15.1 µM (inactive)
C[C@]12CCC(N3CCCC3)CC1=CC[C@@H]1[C@@H]2CC[C@]2(C)C(O)[C@H](n3ccnc3)C[C@@H]12 (stereo not given in full),34.4 µM (inactive),38.6 µM (inactive),44.6 µM (inactive),> 100 µM (inactive),44.2 µM (inactive),15.7 µM (inactive),27.2 µM (inactive),36.7 µM (inactive),61.2 µM (inactive),26.1 µM (inactive),14.2 µM (inactive),5.85 µM (inactive),73.6 µM (inactive),> 100 µM (inactive),32.1 µM (inactive),36.7 µM (inactive),30.8 µM (inactive),17.4 µM (inactive),36.6 µM (inactive),> 10 µM (inactive)
O=C1OC(OC/C(Br)=C(/Br)COC2OC(=O)C(Cl)=C2Cl)C(Cl)=C1Cl (stereo not given),2.69 µM (inactive),12.1 µM (inactive),6.31 µM (inactive),18.4 µM (inactive),8.04 µM (inactive),6.79 µM (inactive),2.07 µM (inactive),15.8 µM (inactive),6.93 µM (inactive),8.51 µM (inactive),2.26 µM (inactive),4.93 µM (inactive),7.6 µM (inactive),13.5 µM (inactive),14 µM (inactive),10.4 µM (inactive),1.68 µM (inactive),5.09 µM (inactive),9.71 µM (inactive),8.75 µM (inactive)
CC(=O)OCC1OC(Oc2cc(C)c(O)cc2C/C=C(\C)CC/C=C(\C)C[C@@H](C=C(C)C)OC(C)=O)C(O)C(OC(C)=O)C1OC(C)=O (stereo not given in full),13.9 µM (inactive),10 µM (inactive),18 µM (inactive),> 50 µM (inactive),25.2 µM (inactive),23.3 µM (inactive),11.6 µM (inactive),18.2 µM (inactive),16.1 µM (inactive),44.5 µM (inactive),8.26 µM (inactive),17.7 µM (inactive),23.6 µM (inactive),22.9 µM (inactive),13.1 µM (inactive),20 µM (inactive),9.84 µM (inactive),12 µM (inactive),16.5 µM (inactive),15.7 µM (inactive)
COC(=O)[C@]1(c2cc3ccccc3n2S(=O)(=O)c2ccccc2)CC2CN(C(C)=O)C1CC2=O (stereo not given in full),1.9 µM (inactive),2.77 µM (inactive),1.82 µM (inactive),3.26 µM (inactive),2.79 µM (inactive),1.96 µM (inactive),1.98 µM (inactive),1.64 µM (inactive),3.43 µM (inactive),3.94 µM (inactive),0.855 µM (active),1.96 µM (inactive),3.58 µM (inactive),7.73 µM (inactive),1.67 µM (inactive),1.91 µM (inactive),0.65 µM (active),1.77 µM (inactive),2.34 µM (inactive),2.69 µM (inactive)
COC(=O)Nc1nc2cc(S(=O)(=O)Nc3ccccn3)ccc2[nH]1,51.8 µM (inactive),17.7 µM (inactive),76 µM (inactive),64.4 µM (inactive),20.7 µM (inactive),78.9 µM (inactive),25.7 µM (inactive),65.8 µM (inactive),46.5 µM (inactive),14.4 µM (inactive),25.5 µM (inactive),43.1 µM (inactive),54.1 µM (inactive),33.3 µM (inactive),42.6 µM (inactive),63 µM (inactive),14 µM (inactive),39.6 µM (inactive),14.1 µM (inactive),32.1 µM (inactive)
N=C(N)NS(=O)(=O)c1ccc(NNc2c3ccccc3nc3ccccc23)cc1,3.59 µM (inactive),20 µM (inactive),13.6 µM (inactive),8.34 µM (inactive),13.2 µM (inactive),12.8 µM (inactive),6.04 µM (inactive),8.75 µM (inactive),6.38 µM (inactive),13.8 µM (inactive),0.472 µM (active),7.28 µM (inactive),4.85 µM (inactive),16.4 µM (inactive),11.9 µM (inactive),3.63 µM (inactive),12.6 µM (inactive),12.9 µM (inactive),16.2 µM (inactive),11.2 µM (inactive)
N#Cc1cc([N+](=O)[O-])ccc1NC(=O)/C(=N\NC(=O)c1ccncc1)C(c1cnc2ccc([N+](=O)[O-])cc2n1)[N+](=O)[O-] (stereo not given),0.759 µM (active),1.55 µM (inactive),2.31 µM (inactive),2.83 µM (inactive),0.512 µM (active),1.63 µM (inactive),2.02 µM (inactive),3.33 µM (inactive),3.1 µM (inactive),2.17 µM (inactive),7.23 µM (inactive),19.2 µM (inactive),2.09 µM (inactive),14.2 µM (inactive),1.52 µM (inactive),2.54 µM (inactive),5.89 µM (inactive),4.44 µM (inactive),1.03 µM (active),2.39 µM (inactive)
CC1=NN(c2ccc(S(=O)(=O)O)cc2)C2(C1)C(Cl)C(=O)N2c1nc2ccccc2s1 (stereo not given),57.8 µM (inactive),> 100 µM (inactive),> 100 µM (inactive),> 100 µM (inactive),> 100 µM (inactive),> 100 µM (inactive),> 100 µM (inactive),> 100 µM (inactive),> 100 µM (inactive),> 100 µM (inactive),> 100 µM (inactive),> 100 µM (inactive),> 100 µM (inactive),> 100 µM (inactive),95.9 µM (inactive),> 100 µM (inactive),> 100 µM (inactive),> 100 µM (inactive),> 100 µM (inactive),> 100 µM (inactive)
CC1(C)CCCCCCC2OC2CCCCCC(C)(C)C1=O (stereo not given),> 67.8 µM (inactive),30.7 µM (inactive),25.5 µM (inactive),> 89.3 µM (inactive),35.8 µM (inactive),32.8 µM (inactive),30 µM (inactive),35.1 µM (inactive),44.4 µM (inactive),65.2 µM (inactive),24 µM (inactive),25.9 µM (inactive),46.2 µM (inactive),> 100 µM (inactive),19 µM (inactive),30.8 µM (inactive),32.5 µM (inactive),20.1 µM (inactive),35.5 µM (inactive),27.8 µM (inactive)
O=c1cc(-c2ccccc2F)[nH]c2cc3c(cc12)OCO3,0.119 µM (active),1.2 µM (inactive),0.711 µM (active),0.202 µM (active),< 0.01 µM (active),0.0528 µM (active),0.0628 µM (active),0.0495 µM (active),0.265 µM (active),> 32.9 µM (inactive),0.245 µM (active),0.0942 µM (active),> 24.6 µM (inactive),2.88 µM (inactive),0.042 µM (active),0.149 µM (active),0.0631 µM (active),0.0813 µM (active),< 0.01 µM (active),0.0344 µM (active)
